The subject of data set [1] is wounded animals. The experiment in a line: Feeding of wounded animals with supplemented feed (general description, daily intake titration). Format: in vivo. The source says:
Phytohormones and beta-glucans appeared to work in a wide range of concentrations for improving the speed of wound healing in animals. The optimal concentrations may vary between different species, however, the skilled person will know how to obtain an optimal concentration for a given species, for instance by titration of the desired compound into the animal feed and testing when this would have the optimal effect. The following may serve as guidance in this process.
A skilled person will appreciate that the amount of free IAA in the ready to use feed has to be adjusted in order to supply the animal with an effective amount of free IAA. In order to adjust the free IAA concentration in the feed so that a certain daily intake of free IAA is achieved, an estimate has to be made of the feed intake of an animal or animal group. A skilled person is aware of the feed intake of a (particular kind or group of) animal(s), typically, the feed intake per day is between 0.5 and 10% of the body weight of the animal, with occasional exceptions as high as 20%. Elderly animals tend to eat less and are considered to have a feed intake per day between 0.1 and 5%, typically of 1% of their body mass.

Data set [2] has as its system koi fish suffering from wounds as a result of parasites. The experiment in a line: Wound healing of koi fish in ponds fed fish feed according to the invention. Format: in vivo. Conditions: scale 1 (very slow recovery) to 5 (very fast recovery). An excerpt: Four ponds of 40 cubic meters each, each containing 50 koi fish with an approximate total body weight of 50 kg were used to establish the effect of the fish feed according to the invention on wound healing. One pond (pond 1) served as a control were the fish were fed with control feed, the fish in the other ponds received a feed according to the invention as prepared in examples 6 to 8 above.
The fish in control pond were fed with 10 gram Cyprico White 3 mm floater feed per day, whereas the fish in the other ponds were fed with 10 gram of the feed as described in Example 2, 3 and 4 (Table 2). About 10% of all fish suffered from wounds as a result of parasites.
The veterinarian filled in a questionnaire on the recovery process of the fish, Table 3. Criterion was the speed of disappearance of the wounds. This criterion was scored on a scale ranging from 1 to 5 wherein 1 was very slow recovery and 5 very fast recovery. This criterion was scored 1, 2, 4, 7 and 21 days of feeding.

For data set [3], the system named is humans. Conditions: single doses of 0.1 g/kg body weight; cited from earlier work.
Data set [4] has as its system fibroblasts. Conditions: cited from earlier work.
Data set [5] relates to surgical wound. Conditions: oral supplementation of 50 mg of zinc three times per day, as zinc sulfate; cited from earlier work.

As to 1.3 and 1.6 beta glucans, the “optimal daily intake (optimal results / optimum between cost and benefit)” value in data set [1] (in feed) is listed as “around 5 mg/kglw/day”.

With `O=C(O)Cc1c[nH]c2ccccc12` [free IAA, indole-3-acetic acid], the Wound healing score in data set [2] (1 day of feeding) is given as 1; in data set [2] (2 days of feeding), 1; in data set [2] (4 days of feeding) it was 2; in data set [2] (7 days of feeding), 3; in data set [2] (21 days of feeding) it was 4. In data set [1] (feed with 0.4 mg/kglw/day), the “effect on recovery of wounded animals” value is recorded as “very effective”. Further, the “toxicity of single doses” value in data set [3] is “non-toxic”. For the same molecule, in data set [4], the “effect on the migration of fibroblasts in vitro” value is on record as “had an effect”.

With `C=C1C[C@]23C[C@@]1(O)CC[C@H]2[C@@]12C=C[C@H](O)[C@@](C)(C(=O)O1)[C@H]2[C@@H]3C(=O)O` [gibberellin, gibberellic acid], the “effect on the migration of fibroblasts in vitro” value in data set [4] was “not”.

`O=S(=O)([O-])[O-].[Zn+2]` [zinc, zinc sulfate]: the “reduction of healing time of a surgical wound” value in data set [5] is 43%.
